The values below come from patent publication US20230167094A1, “H4 ANTAGONIST COMPOUNDS” (Heptares Therapeutics Limited, priority 2020, published 2023).

The target in one data set is T1, human H4 receptor (Homo sapiens, UniProt Q9H3N8).
T1 construct: expressed in transfected cells; host or cells: HEKf cells infected with baculovirus
Kind of data set: H4 Antagonist Functional Dynamic Mass Redistribution Assay. The data set is classed as cell-based. The note with it: HEKf cells expressing human H4 receptor, antagonist mode vs histamine EC80, pKb by Cheng-Prusoff; for Kb: read-out: Human H4 DMR fpKb (converted). The procedure: H4 Antagonist Functional Dynamic Mass Redistribution Assay
HEKf cells were infected using baculovirus expressing the human H4 receptor, plated into fibronectin-coated EPIC plates at a density of 10,000 cells/well and incubated overnight at 37° C. The medium on cells was changed to […] HBSS with 20 mM HEPES per well and 30 nL DMSO were added per well by LabCyte ECHO acoustic dispensing. Following 2 h equilibration at room temperature, 30 nL of H4 ligands prepared in DMSO were stamped by LabCyte ECHO acoustic dispensing into seeded EPIC plates and cellular dynamic mass redistribution was monitored using a Corning EPIC plate reader. Following 45 min measurement, 30 nL/well of histamine EC80 was added and monitored to obtain antagonist assay data. Maximum baseline-corrected responses in pm were used to generate concentration response curves. EC50 values were generated using a 4-parameter logistical fit equation to quantify agonist potencies. Functional antagonist affinity values were generated using the Cheng-Prusoff equation to calculate a pKb value using the antagonist assay data.

For a further data set, the target named is hERG (Homo sapiens, UniProt Q12809). As to the kind of experiment: hERG assay (QPatch automated patch clamp, CHO cells). It is filed as cell-based. The following applies: CHO cells stably expressing hERG, 1, 3, 10 and 30 μM, tail current, room temperature; for IC50: read-out: hERG pIC50 (converted). The procedure: All experiments were performed on the QPatch automated patch clamp platform.
Series resistance (4-15 MΩ) was compensated by >80%.
In general terms: The hERG channel carries a current that helps repolarise heart muscle cells.

T1 sequence (Q9H3N8 whole entry): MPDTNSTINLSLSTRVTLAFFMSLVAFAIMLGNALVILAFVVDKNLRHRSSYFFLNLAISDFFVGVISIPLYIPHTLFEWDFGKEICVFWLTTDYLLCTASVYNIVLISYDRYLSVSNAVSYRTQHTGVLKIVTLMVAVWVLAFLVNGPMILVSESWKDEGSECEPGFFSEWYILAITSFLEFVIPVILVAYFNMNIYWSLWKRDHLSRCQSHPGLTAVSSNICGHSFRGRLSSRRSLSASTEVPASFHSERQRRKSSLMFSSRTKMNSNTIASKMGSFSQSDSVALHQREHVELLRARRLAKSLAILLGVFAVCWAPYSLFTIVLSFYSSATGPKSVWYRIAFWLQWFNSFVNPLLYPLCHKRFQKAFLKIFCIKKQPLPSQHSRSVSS
Sequence of hERG (Q12809 whole entry): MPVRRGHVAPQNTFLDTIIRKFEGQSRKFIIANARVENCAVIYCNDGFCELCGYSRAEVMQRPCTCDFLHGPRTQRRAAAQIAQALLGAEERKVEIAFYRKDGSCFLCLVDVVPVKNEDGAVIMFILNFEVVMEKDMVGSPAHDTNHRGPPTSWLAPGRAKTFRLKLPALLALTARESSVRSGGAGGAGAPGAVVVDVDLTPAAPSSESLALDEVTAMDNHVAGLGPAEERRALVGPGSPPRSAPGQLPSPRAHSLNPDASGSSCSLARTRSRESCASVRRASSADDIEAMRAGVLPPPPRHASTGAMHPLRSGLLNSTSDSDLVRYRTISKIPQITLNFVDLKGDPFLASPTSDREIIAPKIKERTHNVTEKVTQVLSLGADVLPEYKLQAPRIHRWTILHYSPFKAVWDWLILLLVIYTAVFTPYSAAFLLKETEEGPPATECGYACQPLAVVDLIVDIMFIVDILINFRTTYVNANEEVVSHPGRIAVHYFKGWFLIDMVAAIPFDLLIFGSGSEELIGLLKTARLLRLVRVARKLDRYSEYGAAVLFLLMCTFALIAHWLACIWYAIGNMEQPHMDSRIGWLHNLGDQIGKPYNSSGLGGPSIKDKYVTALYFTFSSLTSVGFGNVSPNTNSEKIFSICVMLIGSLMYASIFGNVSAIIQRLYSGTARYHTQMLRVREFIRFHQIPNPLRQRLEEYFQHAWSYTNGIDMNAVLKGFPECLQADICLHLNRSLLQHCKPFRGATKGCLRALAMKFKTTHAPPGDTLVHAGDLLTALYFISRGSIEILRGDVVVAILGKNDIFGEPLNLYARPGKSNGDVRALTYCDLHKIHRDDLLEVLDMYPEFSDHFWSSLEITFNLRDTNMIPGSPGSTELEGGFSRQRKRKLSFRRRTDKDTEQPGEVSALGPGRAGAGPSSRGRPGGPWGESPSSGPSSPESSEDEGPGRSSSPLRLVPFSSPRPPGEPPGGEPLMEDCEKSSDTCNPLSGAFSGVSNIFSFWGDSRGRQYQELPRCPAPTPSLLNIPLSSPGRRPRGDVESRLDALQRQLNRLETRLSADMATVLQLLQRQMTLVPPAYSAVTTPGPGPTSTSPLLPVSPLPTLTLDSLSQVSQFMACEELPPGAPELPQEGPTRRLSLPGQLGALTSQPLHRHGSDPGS

Consider `CNC1CN(c2cc(-c3cc(C)nn3C)nc(N)n2)C1` [Example 24, 4-(1,3-Dimethyl-1H-pyrazol-5-yl)-6-(3-(methylamino)azetidin-1-yl)pyrimidin-2-amine], for which the Kb at human H4 receptor was 126 nM. The IC50 at hERG is more than 100000 nM.
Consider `CNC1CN(c2cc(-c3n[nH]c(C(F)(F)F)c3C)nc(N)n2)C1` [Example 17, 4-(4-Methyl-5-(trifluoromethyl)-1H-pyrazol-3-yl)-6-(3-(methylamino)azetidin-1-yl)pyrimidin-2-amine], for which the Kb on human H4 receptor is 1 nM. Besides, on hERG, the IC50 is more than 100000 nM.
For the compound `CNC1CN(c2cc(-c3cn(C)nc3Cl)nc(N)n2)C1` [Example 29, 4-(3-Chloro-1-methyl-1H-pyrazol-4-yl)-6-(3-(methylamino)azetidin-1-yl)pyrimidin-2-amine], the Kb at human H4 receptor was 1.58 nM. The IC50 on hERG is more than 100000 nM.
As to `CC(C)c1cc(N2CC[C@@H](N)C2)nc(N)n1` [JNJ-39758979, reference compound], at human H4 receptor, the “Human H4 DMR fpKb” value stood at 8.5. Also, the “hERG pIC50” value at hERG was not above 4.0.
On to `CCn1cc(-c2cc(N3CC[C@@H](NC)C3)nc(N)n2)c(C)n1` [Example 14, (R)-4-(1-Ethyl-3-methyl-1H-pyrazol-4-yl)-6-(3-(methylamino)pyrrolidin-1-yl)pyrimidin-2-amine], for which the Kb on human H4 receptor is 100 nM. Besides, at hERG, the IC50 is 28800 nM.
Take `CNC1CN(c2cc(-c3c[nH]nc3C(F)(F)F)nc(N)n2)C1` [Example 37, 4-(3-(Methylamino)azetidin-1-yl)-6-(3-(trifluoromethyl)-1H-pyrazol-4-yl)pyrimidin-2-amine]: the Kb at human H4 receptor was 31.6 nM. In addition, the IC50 on hERG is more than 31600 nM.
Take `CNC1CN(c2cc(-c3cnn(CC(F)(F)F)c3C)nc(N)n2)C1` [Example 12, 4-(5-Methyl-1-(2,2,2-trifluoroethyl)-1H-pyrazol-4-yl)-6-(3-(methylamino)azetidin-1-yl)pyrimidin-2-amine]: the Kb at human H4 receptor is 7.94 nM. Moreover, the IC50 at hERG was 38900 nM.
Turning to `CCn1cc(-c2cc(N3CC(NC)C3)nc(N)n2)c(C)n1` [Example 13, 4-(1-Ethyl-3-methyl-1H-pyrazol-4-yl)-6-(3-(methylamino)azetidin-1-yl)pyrimidin-2-amine], the Kb on human H4 receptor is 10 nM. Moreover, the IC50 at hERG was more than 100000 nM.
On the same counts, the results for `CNC1CN(c2cc(-c3cn[nH]c3)nc(N)n2)C1` [Example 38, 4-(3-(Methylamino)azetidin-1-yl)-6-(1H-pyrazol-4-yl)pyrimidin-2-amine] are 5.01 nM and more than 31600 nM.
Taken in the same sequence, the figures for `CCNC1CN(c2cc(-c3cnn(C(F)(F)F)c3)nc(N)n2)C1` [Example 7, 4-(3-(Ethylamino)azetidin-1-yl)-6-(1-(trifluoromethyl)-1H-pyrazol-4-yl)pyrimidin-2-amine] were 7.94 nM and 42700 nM.
Taken in the same sequence, the figures for `CNC1CN(c2cc(-c3cnn(C)c3Br)nc(N)n2)C1` [Example 30, 4-(5-Bromo-1-methyl-1H-pyrazol-4-yl)-6-(3-(methylamino)azetidin-1-yl)pyrimidin-2-amine] were 1.58 nM and more than 100000 nM.
Consider `CNC1CN(c2cc(-c3cn(C(C)C)nc3C)nc(N)n2)C1` [Example 11, 4-(1-Isopropyl-3-methyl-1H-pyrazol-4-yl)-6-(3-(methylamino)azetidin-1-yl)pyrimidin-2-amine], for which the Kb on human H4 receptor is 10 nM. In addition, the IC50 on hERG is more than 100000 nM.
For the compound `CNC1CN(c2cc(-c3cnn(CC(F)F)c3)nc(N)n2)C1` [Example 9, 4-(1-(2,2-Difluoroethyl)-1H-pyrazol-4-yl)-6-(3-(methylamino)azetidin-1-yl)pyrimidin-2-amine], the Kb at human H4 receptor was 12.6 nM. On hERG, the IC50 is more than 100000 nM.
With `CNC1CN(c2cc(-c3[nH]nc(Cl)c3Cl)nc(N)n2)C1` [Example 42, 4-(4,5-Dichloro-1H-pyrazol-3-yl)-6-(3-(methylamino)azetidin-1-yl)pyrimidin-2-amine], the Kb on human H4 receptor is 6.31 nM. Moreover, the IC50 on hERG is more than 100000 nM.
Regarding `CNC1CN(c2cc(-c3cnn(C(F)F)c3)nc(N)n2)C1` [Example 1, 4-(1-(Difluoromethyl)-1H-pyrazol-4-yl)-6-(3-(methylamino)azetidin-1-yl)pyrimidin-2-amine], the Kb on human H4 receptor was 1.26 nM. Also, the IC50 on hERG was more than 100000 nM.
Consider `Nc1nc(-c2cnn(C(F)(F)F)c2)cc(N2CC(N)C2)n1` [Example 6, 4-(3-Aminoazetidin-1-yl)-6-(1-(trifluoromethyl)-1H-pyrazol-4-yl)pyrimidin-2-amine], for which, at human H4 receptor, the Kb was 12.6 nM. Further, the IC50 on hERG is more than 100000 nM.
Turning to `CCc1cc(-c2cc(N3CC(NC)C3)nc(N)n2)n(C)n1` [Example 25, 4-(3-Ethyl-1-methyl-1H-pyrazol-5-yl)-6-(3-(methylamino)azetidin-1-yl)pyrimidin-2-amine], on human H4 receptor, the Kb is 100 nM.
`CCn1ncc(-c2cc(N3CC(NC)C3)nc(N)n2)c1C` [Example 21, 4-(1-Ethyl-5-methyl-1H-pyrazol-4-yl)-6-(3-(methylamino)azetidin-1-yl)pyrimidin-2-amine]: the Kb at human H4 receptor was 2.51 nM. Besides, on hERG, the IC50 is more than 100000 nM.
Consider `CCc1[nH]nc(-c2cc(N3CC(NC)C3)nc(N)n2)c1C` [Example 40, 4-(5-Ethyl-4-methyl-1H-pyrazol-3-yl)-6-(3-(methylamino)azetidin-1-yl)pyrimidin-2-amine], for which the IC50 on hERG is more than 31600 nM.
In the case of `CNC1CN(c2cc(-c3nn(C)cc3C)nc(N)n2)C1` [Example 8, 4-(1,4-Dimethyl-1H-pyrazol-3-yl)-6-(3-(methylamino)azetidin-1-yl)pyrimidin-2-amine], the Kb on human H4 receptor is 7.94 nM. In addition, the IC50 on hERG was 23400 nM.
On the same counts, the results for `CNC1CN(c2cc(-c3cn(C)nc3Br)nc(N)n2)C1` [Example 31, 4-(3-Bromo-1-methyl-1H-pyrazol-4-yl)-6-(3-(methylamino)azetidin-1-yl)pyrimidin-2-amine] are 7.94 nM and more than 31600 nM.
Taken in the same sequence, the figures for `CNC1CN(c2cc(-c3cn(CC(F)(F)F)nc3C)nc(N)n2)C1` [Example 19, 4-(3-Methyl-1-(2,2,2-trifluoroethyl)-1H-pyrazol-4-yl)-6-(3-(methylamino)azetidin-1-yl)pyrimidin-2-amine] were 50.1 nM and more than 31600 nM.
Taken in the same sequence, the figures for `CNC1CN(c2cc(-c3cnn(CC(F)(F)F)c3)nc(N)n2)C1` [Example 2, 4-(3-(Methylamino)azetidin-1-yl)-6-(1-(2,2,2-trifluoroethyl)-1H-pyrazol-4-yl)pyrimidin-2-amine] were 15.8 nM and more than 100000 nM.
For the compound `CN[C@@H]1CCN(c2cc(NCC3CC3)nc(N)n2)C1` [PF-3893787, reference compound], the Kb at human H4 receptor is 0.794 nM. On hERG, the IC50 was 7940 nM.
`CN1CCN(C(=O)c2cc3cc(Cl)ccc3[nH]2)CC1` [JNJ-7777120, reference compound]: the IC50 at hERG was not below 100000 nM.
As for `CNC1CN(c2cc(-c3cnn(C(C)C)c3C)nc(N)n2)C1` [Example 22, 4-(1-Isopropyl-5-methyl-1H-pyrazol-4-yl)-6-(3-(methylamino)azetidin-1-yl)pyrimidin-2-amine], on human H4 receptor, the Kb was 7.94 nM. In addition, the IC50 at hERG was more than 100000 nM.
On the same counts, the results for `CNC1CN(c2cc(-c3cc(Cl)nn3C)nc(N)n2)C1` [Example 26, 4-(3-Chloro-1-methyl-1H-pyrazol-5-yl)-6-(3-(methylamino)azetidin-1-yl)pyrimidin-2-amine] are 15.8 nM and more than 100000 nM.
Regarding `CNC1CN(c2cc(-c3cnn(C)c3Cl)nc(N)n2)C1` [Example 15, 4-(5-Chloro-1-methyl-1H-pyrazol-4-yl)-6-(3-(methylamino)azetidin-1-yl)pyrimidin-2-amine], the Kb at human H4 receptor is 7.94 nM. The IC50 on hERG was more than 100000 nM.
On the same counts, the results for `CNC1CN(c2cc(-c3cnn(C(F)F)c3C)nc(N)n2)C1` [Example 16, 4-(1-(Difluoromethyl)-5-methyl-1H-pyrazol-4-yl)-6-(3-(methylamino)azetidin-1-yl)pyrimidin-2-amine] are 2 nM and more than 100000 nM.
Taken in the same sequence, the figures for `CNC1CN(c2cc(-c3c[nH]nc3C)nc(N)n2)C1` [Example 39, 4-(3-Methyl-1H-pyrazol-4-yl)-6-(3-(methylamino)azetidin-1-yl)pyrimidin-2-amine] were 3.98 nM and more than 31600 nM.
As for `CCn1cc(-c2cc(N3CC(NC)C3)nc(N)n2)cn1` [Example 3, 4-(1-Ethyl-1H-pyrazol-4-yl)-6-(3-(methylamino)azetidin-1-yl)pyrimidin-2-amine], the Kb at human H4 receptor is 3.98 nM. In addition, the IC50 at hERG was more than 100000 nM.
For `CNC1CN(c2cc(-c3cc(C(F)(F)F)nn3C)nc(N)n2)C1` [Example 27, 4-(1-Methyl-3-(trifluoromethyl)-1H-pyrazol-5-yl)-6-(3-(methylamino)azetidin-1-yl)pyrimidin-2-amine], at human H4 receptor, the Kb was 15.8 nM. The IC50 at hERG was 44700 nM.
In the case of `CN[C@@H]1CCN(c2cc(-c3cnn(C)c3Cl)nc(N)n2)C1` [Example 5, (R)-4-(5-Chloro-1-methyl-1H-pyrazol-4-yl)-6-(3-(methylamino)pyrrolidin-1-yl)pyrimidin-2-amine], the Kb on human H4 receptor is 3.98 nM. The IC50 at hERG was more than 100000 nM.
